Experimental data taken from PubChem BioAssay AID248 (DTP/NCI, 2004).
Values joined by “and” are separate entries in the source; they are usually repeats but may differ in a detail not shown here. Equal entries are not always repeated. Toxic doses and inconclusive results are not listed. Cut-off read from the data, not from the text of the source: active = T/C of 150% or more; inactive = T/C below 125%.

Test system: L1210 leukemia ip in BDF1 mice, survival T/C
Experiment: NCI In Vivo Anticancer Drug Screen. Data for tumor model L1210 Leukemia (intraperitoneal) in B6D2F1 (BDF1) mice
Settings: endpoint: mean survival time, higher = longer survival
How it was run: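 Transplanted-tumor mice were given test agent; controls received vehicle only. Survival readings from the two groups were divided (treated over control).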

[1] = dose: 100.0 mg/kg/injection, schedule: Q04DX003 (ip), vehicle: saline with Tween-80
[2] = dose: 200.0 mg/kg/injection, schedule: Q04DX003 (ip), vehicle: saline with Tween-80
[3] = dose: 400.0 mg/kg/injection, schedule: Q04DX003 (ip), vehicle: saline with Tween-80
[4] = dose: 100.0 mg/kg/injection, schedule: Q01DX009 (ip), vehicle: Klucel (hydroxypropylcellulose) (HPC)
[5] = dose: 200.0 mg/kg/injection, schedule: Q01DX009 (ip), vehicle: Klucel (hydroxypropylcellulose) (HPC)
[6] = dose: 400.0 mg/kg/injection, schedule: Q01DX009 (ip), vehicle: Klucel (hydroxypropylcellulose) (HPC)
[7] = dose: 100.0 mg/kg/injection, schedule: Q04DX003 (ip), vehicle: Klucel (hydroxypropylcellulose) (HPC)
[8] = dose: 200.0 mg/kg/injection, schedule: Q04DX003 (ip), vehicle: Klucel (hydroxypropylcellulose) (HPC)
[9] = dose: 400.0 mg/kg/injection, schedule: Q04DX003 (ip), vehicle: Klucel (hydroxypropylcellulose) (HPC)
[10] = dose: 100.0 mg/kg/injection, schedule: Q01DX009 (ip), vehicle: saline with Tween-80
[11] = dose: 200.0 mg/kg/injection, schedule: Q01DX009 (ip), vehicle: saline with Tween-80
[12] = dose: 400.0 mg/kg/injection, schedule: Q01DX009 (ip), vehicle: saline with Tween-80
[13] = dose: 100.0 mg/kg/injection, schedule: Q01DX001 (ip), vehicle: saline
[14] = dose: 200.0 mg/kg/injection, schedule: Q01DX001 (ip), vehicle: saline
[15] = dose: 400.0 mg/kg/injection, schedule: Q01DX001 (ip), vehicle: saline
[16] = dose: 75.0 mg/kg/injection, schedule: Q01DX001 (ip), vehicle: saline
[17] = dose: 50.0 mg/kg/injection, schedule: Q01DX001 (ip), vehicle: saline

Measured: T/C

CN(C)c1ccc(/C=C/c2cc(N(C)C)nc3ccccc23)cc1
inactive: dose: 25.0 mg/kg/injection, schedule: Q01DX015 (ip), vehicle: carboxymethylcellulose (CMC) 109 % of control | dose: 50.0 mg/kg/injection, schedule: Q01DX015 (ip), vehicle: carboxymethylcellulose (CMC) 105 % of control | dose: 75.0 mg/kg/injection, schedule: Q01DX015 (ip), vehicle: carboxymethylcellulose (CMC) 101 % of control

CNCCC=C1c2ccccc2CCc2ccccc21
inactive: dose: 3.12 mg/kg/injection, schedule: Q01DX009 (ip), vehicle: saline 101 % of control | dose: 6.25 mg/kg/injection, schedule: Q01DX009 (ip), vehicle: saline 101 % of control | dose: 12.5 mg/kg/injection, schedule: Q01DX009 (ip), vehicle: saline 106 % of control | dose: 25.0 mg/kg/injection, schedule: Q01DX009 (ip), vehicle: saline 106 % of control | dose: 25.0 mg/kg/injection, schedule: Q04DX003 (ip), vehicle: saline 96 % of control | dose: 50.0 mg/kg/injection, schedule: Q01DX009 (ip), vehicle: saline 117 % of control | dose: 50.0 mg/kg/injection, schedule: Q04DX003 (ip), vehicle: saline 96 % of control

O=C(O)/C=C\C(=O)Nc1ccccc1C(=O)O
inactive: [1] 98 % of control | [2] 97 % of control | [3] 111 % of control

COc1ccc(C)cc1NC(=O)c1cccc(F)c1
inactive: [4] 106 % of control | [5] 101 % of control | [6] 97 % of control

Cc1ccnc(SCC(=O)O)n1
inactive: [4] 108 % of control | [7] 96 % of control | [5] 95 % of control | [8] 96 % of control | [6] 90 % of control | [9] 95 % of control

CCCC(O)C(C)[N+](=O)[O-] (stereo unspecified)
inactive: dose: 100.0 mg/kg/injection, schedule: Q04DX003 (ip), vehicle: saline 96 % of control | dose: 200.0 mg/kg/injection, schedule: Q04DX003 (ip), vehicle: saline 102 % of control | dose: 400.0 mg/kg/injection, schedule: Q04DX003 (ip), vehicle: saline 96 % of control

F[Si](c1ccccc1)(c1ccccc1)c1cccc2ccccc12
inactive: dose: 100.0 mg/kg/injection, schedule: Q01DX001 (ip), vehicle: saline with Tween-80 96 % of control | [10] 98 % of control | dose: 200.0 mg/kg/injection, schedule: Q01DX001 (ip), vehicle: saline with Tween-80 102 % of control | [11] 92 % of control | dose: 400.0 mg/kg/injection, schedule: Q01DX001 (ip), vehicle: saline with Tween-80 94 % of control | [12] 93 % of control

Cc1ccc(-c2oc(-c3ccc(C)cc3)c3cc(C)c(C)cc23)cc1
inactive: dose: 100.0 mg/kg/injection, schedule: Q01DX001 (ip), vehicle: Klucel (hydroxypropylcellulose) (HPC) 87 % of control | dose: 200.0 mg/kg/injection, schedule: Q01DX001 (ip), vehicle: Klucel (hydroxypropylcellulose) (HPC) 90 % of control | dose: 400.0 mg/kg/injection, schedule: Q01DX001 (ip), vehicle: Klucel (hydroxypropylcellulose) (HPC) 88 % of control

CC1(C)CCC2CC(=O)OC2(C)C1 (stereo unspecified)
inactive: [13] 109 % of control | dose: 100.0 mg/kg/injection, schedule: Q01DX009 (ip), vehicle: saline 100 % of control | [14] 95 % of control | dose: 200.0 mg/kg/injection, schedule: Q01DX009 (ip), vehicle: saline 94 % of control | [15] 92 % of control | dose: 400.0 mg/kg/injection, schedule: Q01DX009 (ip), vehicle: saline 98 % of control

CCOC(=O)COc1ccc(N=NN(C)c2ccccc2)cc1
inactive: dose: 111.0 mg/kg/injection, schedule: Q01DX Z (ip), vehicle: carboxymethylcellulose (CMC) 102 % of control | dose: 166.0 mg/kg/injection, schedule: Q01DX Z (ip), vehicle: carboxymethylcellulose (CMC) 104 % of control | dose: 250.0 mg/kg/injection, schedule: Q01DX Z (ip), vehicle: carboxymethylcellulose (CMC) 113 % of control

NC(N)=N/N=C/c1cc(Cl)cc(Cl)c1O
inactive: [16] 101 % of control

S=c1[nH]ccc2n[nH]nc12
inactive: [1] 101 % of control | [2] 98 % of control | [3] 101 % of control

[CH3][Pb]([CH3])([CH3])[O]P(=O)(O)c1ccccc1
inactive: dose: 3.12 mg/kg/injection, schedule: Q04DX002 (ip), vehicle: saline 98 % of control | dose: 6.25 mg/kg/injection, schedule: Q04DX002 (ip), vehicle: saline 103 % of control | dose: 12.5 mg/kg/injection, schedule: Q04DX002 (ip), vehicle: saline 98 % of control and 101 % of control

C1=Cc2ccccc2C(c2ccccn2)c2ccccc21
inactive: dose: 100.0 mg/kg/injection, schedule: Q04DX003 (ip), vehicle: gum acacia 90 % of control | dose: 200.0 mg/kg/injection, schedule: Q04DX003 (ip), vehicle: gum acacia 97 % of control | dose: 400.0 mg/kg/injection, schedule: Q04DX003 (ip), vehicle: gum acacia 93 % of control

O=NN(CCCl)C(=O)NCCc1cccc[n+]1[O-]
active: dose: 6.25 mg/kg/injection, schedule: Q01DX001 (ip), vehicle: water 154 % of control | dose: 12.5 mg/kg/injection, schedule: Q01DX001 (ip), vehicle: water 184 % of control | dose: 25.0 mg/kg/injection, schedule: Q01DX001 (ip), vehicle: water 312 % of control

Ic1nc(I)c(I)[nH]1
inactive: [10] 102 % of control | [11] 105 % of control | [12] 102 % of control

O=c1[nH]nc(-c2ccccc2)c2ccccc12
inactive: [17] 100 % of control | [13] 97 % of control | [14] 93 % of control | [15] 100 % of control

CC12C(=O)OC(=O)C1(C)C1OC2C(Br)C1Br (stereo unspecified)
inactive: dose: 25.0 mg/kg/injection, schedule: Q01DX009 (ip), vehicle: saline with Tween-80 95 % of control | dose: 50.0 mg/kg/injection, schedule: Q01DX009 (ip), vehicle: saline with Tween-80 97 % of control | [10] 88 % of control

O=C1CN=C(c2ccccc2Cl)c2cc(Cl)ccc2N1
inactive: dose: 12.5 mg/kg/injection, schedule: Q01DX009 (ip), vehicle: Klucel (hydroxypropylcellulose) (HPC) 114 % of control | dose: 25.0 mg/kg/injection, schedule: Q01DX009 (ip), vehicle: Klucel (hydroxypropylcellulose) (HPC) 95 % of control | dose: 25.0 mg/kg/injection, schedule: Q04DX003 (ip), vehicle: Klucel (hydroxypropylcellulose) (HPC) 100 % of control | dose: 50.0 mg/kg/injection, schedule: Q01DX009 (ip), vehicle: Klucel (hydroxypropylcellulose) (HPC) 106 % of control | dose: 50.0 mg/kg/injection, schedule: Q04DX003 (ip), vehicle: Klucel (hydroxypropylcellulose) (HPC) 105 % of control | [4] 97 % of control | [7] 100 % of control | [5] 103 % of control | [8] 120 % of control

CCOC(=O)c1cnc(SC)[nH]c1=O
inactive: [17] 92 % of control | [13] 95 % of control | [14] 98 % of control | [15] 98 % of control

CCCCCCCCCCCCCCCCSS(=O)(=O)c1ccc(C)cc1
inactive: [16] 98 % of control | dose: 150.0 mg/kg/injection, schedule: Q01DX001 (ip), vehicle: saline 91 % of control | dose: 300.0 mg/kg/injection, schedule: Q01DX001 (ip), vehicle: saline 90 % of control

CCOC(=O)c1cnc(SC)nc1NCc1ccccc1Cl
inactive: [4] 102 % of control | [7] 106 % of control | [5] 97 % of control | [8] 105 % of control | [6] 97 % of control | [9] 95 % of control

CC(NCl)c1ccccc1 (stereo unspecified)
inactive: [13] 95 % of control | [14] 100 % of control | [15] 100 % of control

CCN(CC)CCCC(C)Nc1ccnc2cc(C(F)(F)F)ccc12 (stereo unspecified)
inactive: dose: 5.0 mg/kg/injection, schedule: Q01DX001 (ip), vehicle: carboxymethylcellulose (CMC) 104 % of control | dose: 10.0 mg/kg/injection, schedule: Q01DX001 (ip), vehicle: carboxymethylcellulose (CMC) 106 % of control | dose: 20.0 mg/kg/injection, schedule: Q01DX001 (ip), vehicle: carboxymethylcellulose (CMC) 90 % of control | dose: 40.0 mg/kg/injection, schedule: Q01DX001 (ip), vehicle: carboxymethylcellulose (CMC) 104 % of control

O=C1OCCN1c1ccc(S(=O)(=O)c2ccc(N3CCOC3=O)cc2)cc1
inactive: [10] 98 % of control | [1] 102 % of control | [11] 93 % of control | [2] 102 % of control | [12] 95 % of control | [3] 96 % of control
